Molecules are shown by their SMILES. ≈ marks a conversion by molar mass, not a printed value.

The term MIC denotes the lowest concentration that inhibits growth of the organism. Low readings indicate inhibition by little substance, high ones a need for much substance.

One data set has as its system Klebsiella pneumoniae. Nature of the data set: Antibacterial activity against Klebsiella pneumoniae after 16 hrs by agar dilution method. In kind it is functional. A general note: Agar dilution tests growth on a series of plates holding different concentrations.
The next data set relates to Escherichia coli. Nature of the data set: Antibacterial activity against Escherichia coli after 16 hrs by agar dilution method. In kind it is functional.
For data set [1], the system named is Staphylococcus aureus. Nature of the data set: Antibacterial activity against Staphylococcus aureus ATCC 29213 after 16 hrs by agar dilution method. In kind it is functional. Conditions: ATCC 29213, 16 h.
For data set [2], the system named is Staphylococcus aureus. Briefly: Antibacterial activity against methicillin-sensitive Staphylococcus aureus after 16 hrs by agar dilution method. The class given is functional.
Data set [3] has as its system Staphylococcus aureus. Briefly: Antibacterial activity against methicillin-resistant Staphylococcus aureus after 16 hrs by agar dilution method. In kind it is functional.
Data set [4] can be described thus: Stability of the compound in LB agar after 16 hrs by UPLC analysis. The class given is physicochemical.

As for `C[C@]12C[C@@]34CCC(=O)[C@@](C)(CCC(=O)Nc5c(O)ccc(C(=O)O)c5O)[C@@H]3[C@H](C[C@@H]1C4)O2`, the MIC was > 64 µg/mL in the data set on Klebsiella pneumoniae; > 64 µg/mL in the data set on Escherichia coli; 2 µg/mL (≈ 4.51 µM) with Staphylococcus aureus [1]; 2 µg/mL (≈ 4.51 µM) with Staphylococcus aureus [2]; 2 µg/mL (≈ 4.51 µM) in the data set with Staphylococcus aureus [3].
For `C[C@]12C[C@@]34C=CC(=O)[C@@](C)(CCC(=O)Nc5c(O)ccc(C(=O)O)c5O)[C@@H]3[C@H](C[C@@H]1C4)O2`, the MIC with Staphylococcus aureus [1] worked out at 0.5 µg/mL (≈ 1.13 µM); in the data set with Staphylococcus aureus [2], 0.5 µg/mL (≈ 1.13 µM); against Staphylococcus aureus [3], 1 µg/mL (≈ 2.27 µM).
With `CC(C)(C)OC(=O)N/N=C1\C=C[C@]23C[C@H]4C[C@H](O[C@@]4(C)C2)[C@H]3[C@]1(C)CCC(=O)Nc1c(O)ccc(C(=O)O)c1O`, the MIC in the data set with Klebsiella pneumoniae is > 64 µg/mL; in the data set with Escherichia coli, > 64 µg/mL; against Staphylococcus aureus [2], 16 µg/mL (≈ 28.8 µM). The Stability result in data set [4] was “Stable”.
Take `C[C@]12C[C@@]34C=C/C(=N\O)[C@@](C)(CCC(=O)Nc5c(O)ccc(C(=O)O)c5O)[C@@H]3[C@H](C[C@@H]1C4)O2`: the MIC was > 64 µg/mL in the data set with Klebsiella pneumoniae; > 64 µg/mL in the data set on Escherichia coli; 32 µg/mL (≈ 70.1 µM) in the data set on Staphylococcus aureus [1]; 16 µg/mL (≈ 35 µM) against Staphylococcus aureus [2]; 32 µg/mL (≈ 70.1 µM) with Staphylococcus aureus [3].
With `COc1ccc(O)c(C(=O)N/N=C2\C=C[C@]34C[C@H]5C[C@H](O[C@@]5(C)C3)[C@H]4[C@]2(C)CCC(=O)Nc2c(O)ccc(C(=O)O)c2O)c1`, the MIC in the data set on Klebsiella pneumoniae was > 64 µg/mL; with Escherichia coli it was > 64 µg/mL; in the data set on Staphylococcus aureus [2], 16 µg/mL (≈ 26.4 µM).
In the case of `C[C@@]1(CCC(=O)Nc2c(O)ccc(C(=O)O)c2O)[C@H](O)C=C[C@]23C[C@H]4C[C@H](O[C@@]4(C)C2)[C@H]31`, the MIC with Klebsiella pneumoniae, with Escherichia coli, against Staphylococcus aureus [1] and in the data set on Staphylococcus aureus [2] was > 64 µg/mL in each case.
Take `CCO/N=C1\C=C[C@]23C[C@H]4C[C@H](O[C@@]4(C)C2)[C@H]3[C@]1(C)CCC(=O)Nc1c(O)ccc(C(=O)O)c1O`: the MIC against Klebsiella pneumoniae, in the data set with Escherichia coli, against Staphylococcus aureus [1] and in the data set with Staphylococcus aureus [2] was > 64 µg/mL throughout.
Regarding `C[C@]12C[C@@]34C=C/C(=N\NC(=O)c5ccccc5)[C@@](C)(CCC(=O)Nc5c(O)ccc(C(=O)O)c5O)[C@@H]3[C@H](C[C@@H]1C4)O2`, the MIC against Klebsiella pneumoniae was > 64 µg/mL; in the data set with Escherichia coli, > 64 µg/mL; against Staphylococcus aureus [1], 32 µg/mL (≈ 57.2 µM); in the data set with Staphylococcus aureus [2], 32 µg/mL (≈ 57.2 µM). In addition, the Stability result in data set [4] is recorded as “Stable”.
As to `C[C@]12C[C@]34C[C@H]1C[C@H](O2)[C@H]3[C@](C)(CCC(=O)Nc1c(O)ccc(C(=O)O)c1O)/C(=N/O)C[C@@H]4NO`, the MIC against Klebsiella pneumoniae is > 64 µg/mL; against Escherichia coli, > 64 µg/mL; with Staphylococcus aureus [1], 16 µg/mL (≈ 32.7 µM); in the data set with Staphylococcus aureus [2], 16 µg/mL (≈ 32.7 µM); against Staphylococcus aureus [3] it was 16 µg/mL (≈ 32.7 µM).
Regarding `C[C@]12C[C@@]34C=C/C(=N\NC(N)=O)[C@@](C)(CCC(=O)Nc5c(O)ccc(C(=O)O)c5O)[C@@H]3[C@H](C[C@@H]1C4)O2`, the MIC against Klebsiella pneumoniae was > 64 µg/mL; in the data set with Escherichia coli, > 64 µg/mL; against Staphylococcus aureus [2] it was 8 µg/mL (≈ 16 µM).
Regarding `C[C@]12C[C@@]34C=C/C(=N\NC(=O)Cc5ccccc5)[C@@](C)(CCC(=O)Nc5c(O)ccc(C(=O)O)c5O)[C@@H]3[C@H](C[C@@H]1C4)O2`, the MIC with Klebsiella pneumoniae is > 64 µg/mL; against Escherichia coli, > 64 µg/mL; in the data set with Staphylococcus aureus [1], 8 µg/mL (≈ 13.9 µM); in the data set on Staphylococcus aureus [2], 8 µg/mL (≈ 13.9 µM). In data set [4], the Stability result is listed as “Stable”.
For `CO/N=C1\C=C[C@]23C[C@H]4C[C@H](O[C@@]4(C)C2)[C@H]3[C@]1(C)CCC(=O)Nc1c(O)ccc(C(=O)O)c1O`, the MIC with Klebsiella pneumoniae, in the data set on Escherichia coli, against Staphylococcus aureus [1] and against Staphylococcus aureus [2] was > 64 µg/mL throughout. In addition, the Stability result in data set [4] was “Stable”.
In the case of `CC(=O)N/N=C1\C=C[C@]23C[C@H]4C[C@H](O[C@@]4(C)C2)[C@H]3[C@]1(C)CCC(=O)Nc1c(O)ccc(C(=O)O)c1O`, the MIC against Klebsiella pneumoniae and in the data set with Escherichia coli was > 64 µg/mL each time.
Turning to `C[C@]12C[C@@]34C=C/C(=N\c5ccccc5)[C@@](C)(CCC(=O)Nc5c(O)ccc(C(=O)O)c5O)[C@@H]3[C@H](C[C@@H]1C4)O2`, the MIC in the data set with Klebsiella pneumoniae was > 64 µg/mL; against Escherichia coli, > 64 µg/mL; in the data set on Staphylococcus aureus [1] it was 2 µg/mL (≈ 3.87 µM); in the data set with Staphylococcus aureus [2], 1 µg/mL (≈ 1.94 µM); in the data set with Staphylococcus aureus [3] it was 2 µg/mL (≈ 3.87 µM). The Stability entry in data set [4] is on record as “Stable”.
For `CC(C)(C)c1ccc(C(=O)N/N=C2\C=C[C@]34C[C@H]5C[C@H](O[C@@]5(C)C3)[C@H]4[C@]2(C)CCC(=O)Nc2c(O)ccc(C(=O)O)c2O)cc1`, the MIC against Klebsiella pneumoniae was > 64 µg/mL; with Escherichia coli it was > 64 µg/mL; with Staphylococcus aureus [1], 32 µg/mL (≈ 52 µM); with Staphylococcus aureus [2], 16 µg/mL (≈ 26 µM).
With `C[C@]1(CCC(=O)Nc2c(O)ccc(C(=O)O)c2O)[C@@H]2[C@@H]3C[C@@H]4C[C@@]2(CC[C@@H]1O)C[C@]4(C)O3`, the MIC against Klebsiella pneumoniae, against Escherichia coli, in the data set on Staphylococcus aureus [1] and with Staphylococcus aureus [2] was > 64 µg/mL each time.
In the case of `C[C@]12C[C@@]34C=C/C(=N\NC(N)=S)[C@@](C)(CCC(=O)Nc5c(O)ccc(C(=O)O)c5O)[C@@H]3[C@H](C[C@@H]1C4)O2`, the results for the MIC in the data set with Klebsiella pneumoniae, with Escherichia coli and against Staphylococcus aureus [2] were > 64 µg/mL, > 64 µg/mL and 16 µg/mL (≈ 31.1 µM), respectively.
As to `C[C@@]1(CCC(=O)Nc2c(O)ccc(C(=O)O)c2O)[C@H](O)CC[C@]23C[C@H]4C[C@H](O[C@@]4(C)C2)[C@H]31`, the MIC against Klebsiella pneumoniae, in the data set on Escherichia coli, with Staphylococcus aureus [1] and against Staphylococcus aureus [2] was > 64 µg/mL throughout.
Take `C[C@]12C[C@@]34C=C/C(=N\NC(=O)c5ccc(O)cc5)[C@@](C)(CCC(=O)Nc5c(O)ccc(C(=O)O)c5O)[C@@H]3[C@H](C[C@@H]1C4)O2`: the MIC with Klebsiella pneumoniae and in the data set on Escherichia coli was > 64 µg/mL in each case.
Regarding `C[C@]1(CCC(=O)Nc2c(O)ccc(C(=O)O)c2O)[C@@H]2[C@@H]3C[C@@H]4C[C@@]2(C=C[C@@H]1O)C[C@]4(C)O3`, the MIC in the data set with Klebsiella pneumoniae, in the data set on Escherichia coli, with Staphylococcus aureus [1] and in the data set on Staphylococcus aureus [2] was > 64 µg/mL throughout.
Regarding `CC(=O)NC[C@H]1CN(c2ccc(N3CCOCC3)c(F)c2)C(=O)O1` [LINEZOLID], the MIC against Staphylococcus aureus [1], against Staphylococcus aureus [2] and against Staphylococcus aureus [3] was 1 µg/mL (≈ 2.96 µM) each time.
For `C=C1C[C@@]23C=CC(=O)[C@@](C)(CCC(=O)Nc4c(O)ccc(C(=O)O)c4O)[C@@H]2C[C@@H]1CC3` [PLATENCIN], the MIC in the data set with Staphylococcus aureus [1], with Staphylococcus aureus [2] and against Staphylococcus aureus [3] was 1 µg/mL (≈ 2.35 µM) each time.

(Values after ChEMBL document CHEMBL4257508, “The semi-synthesis, biological evaluation and docking analysis of the oxime, hydrazine and hydrazide derivatives of platensimycin” (Medchemcomm, 2018).)
